Test results taken from ChEMBL document CHEMBL4725390, “Asymmetrically Substituted Quadruplex-Binding Naphthalene Diimide Showing Potent Activity in Pancreatic Cancer Models” (ACS Med Chem Lett, 2020).
Values belong to the compound of their own block, whether it stands above or below them. Active and inactive are the calls of the source. The calls are words filed in the database; no cut-off is given here.

Legend:
Mus musculus [1] = test: Down regulation of MAPK11 expression in mouse xenografted with human MIAPaCa2 cells at 15 mg/kg, iv administered twice per week for 28 days and measured on day 28 by Western blot analysis; assay type: functional, organism-based; settings: time 28.0 day
[2] = Clearance in mouse xenografted with human MIAPaCa2 cells at 9.1 mg/kg, iv administered as single dose; assay type: ADME, organism-based; settings: in vivo
MIA PaCa-2 [3] = test: Antitumor activity against human MIAPaCa2 cells xenografted in mouse assessed as change in tumor volume at 10 mg/kg, iv administered twice per week for 28 days and measured at day 53 by Caliper method relative to control; assay type: functional; settings: time 28 day
Mus musculus [4] = test: Down regulation of MAPK11 expression in mouse xenografted with human MIAPaCa2 cells at 10 mg/kg, iv administered twice per week for 28 days and measured on day 28 by Western blot analysis; assay type: functional, organism-based; settings: time 28.0 day
[5] = Apparent volume of distribution in mouse xenografted with human MIAPaCa2 cells at 14 mg/kg, iv administered as single dose; assay type: ADME, organism-based; settings: in vivo, read-out: Vz
[6] = Volume of distribution at steady state in mouse xenografted with human MIAPaCa2 cells at 9.1 mg/kg, iv administered as single dose; assay type: ADME, organism-based; settings: in vivo, read-out: Vdss
Mus musculus [7] = test: Effect on hTERT expression in mouse xenografted with human MIAPaCa2 cells at 10 mg/kg, iv administered twice per week for 28 days and measured on day 28 by Western blot analysis; assay type: functional, organism-based; settings: time 28.0 day
[8] = Cmax in mouse xenografted with human MIAPaCa2 cells at 9.1 mg/kg, iv administered as single dose; assay type: ADME, organism-based; parameters: route intravenous, dose 9.1 mg/kg; settings: in vivo
[9] = AUC in mouse xenografted with human MIAPaCa2 cells at 9.1 mg/kg, iv administered as single dose; assay type: ADME, organism-based; parameters: dose 9.1 mg/kg; settings: in vivo
MIA PaCa-2 [10] = test: Antitumor activity against human MIAPaCa2 cells xenografted in mouse assessed as mean tumor volume at 10 mg/kg, iv administered twice per week for 28 days and measured at day 28 by Caliper method (reference value: 0.45 +/- 0.18 cm3); assay type: functional; settings: time 28 day
[11] = AUC in mouse xenografted with human MIAPaCa2 cells at 14 mg/kg, iv administered as single dose; assay type: ADME, organism-based; parameters: dose 14 mg/kg; settings: in vivo
[12] = AUC (infinity) in mouse xenografted with human MIAPaCa2 cells at 14 mg/kg, iv administered as single dose; assay type: ADME, organism-based; parameters: route intravenous, time infinity, dose 14 mg/kg; settings: in vivo
[13] = AUC (infinity) in mouse xenografted with human MIAPaCa2 cells at 9.1 mg/kg, iv administered as single dose; assay type: ADME, organism-based; parameters: route intravenous, time infinity, dose 9.1 mg/kg; settings: in vivo
[14] = Apparent volume of distribution in mouse xenografted with human MIAPaCa2 cells at 9.1 mg/kg, iv administered as single dose; assay type: ADME, organism-based; settings: in vivo, read-out: Vz
MIA PaCa-2 [15] = test: Antitumor activity against human MIAPaCa2 cells xenografted in mouse assessed as change in tumor volume at 1 mg/kg, iv administered twice per week for 28 days and measured at day 53 by Caliper method relative to control; assay type: functional; settings: time 28 day
[16] = Cmax in mouse xenografted with human MIAPaCa2 cells at 14 mg/kg, iv administered as single dose; assay type: ADME, organism-based; parameters: route intravenous, dose 14 mg/kg; settings: in vivo
[17] = Half life in mouse xenografted with human MIAPaCa2 cells at 14 mg/kg, iv administered as single dose; assay type: ADME, organism-based; settings: in vivo
CAPAN-1 = test: Antiproliferative activity against human Capan1 cells assessed as growth inhibition after 96 hrs by SRB assay; assay type: functional
MIA PaCa-2 [18] = test: Antitumor activity against human MIAPaCa2 cells xenografted in mouse assessed as change in tumor volume at 15 mg/kg, iv administered twice per week for 28 days and measured at day 28 by Caliper method relative to control; assay type: functional; settings: time 28 day
MIA PaCa-2 [19] = test: Antitumor activity against human MIAPaCa2 cells xenografted in mouse assessed as mean tumor volume at 10 mg/kg, iv administered twice per week for 28 days and measured at day 53 by Caliper method (reference value: 1.60 +/- 0.44 cm3); assay type: functional; settings: time 28 day
MIA PaCa-2 [20] = test: Antitumor activity against human MIAPaCa2 cells xenografted in mouse assessed as change in tumor volume at 10 mg/kg, iv administered twice per week for 28 days and measured at day 28 by Caliper method relative to control; assay type: functional; settings: time 28 day
[21] = Half life in mouse xenografted with human MIAPaCa2 cells at 9.1 mg/kg, iv administered as single dose; assay type: ADME, organism-based; settings: in vivo
MIA PaCa-2 [22] = test: Antiproliferative activity against human MIAPaCa2 cells assessed as growth inhibition after 96 hrs by SRB assay; assay type: functional
BXPC-3 = test: Antiproliferative activity against human BxPC3 cells assessed as growth inhibition after 96 hrs by SRB assay; assay type: functional
[23] = Clearance in mouse xenografted with human MIAPaCa2 cells at 14 mg/kg, iv administered as single dose; assay type: ADME, organism-based; settings: in vivo
Mus musculus [24] = test: Effect on hTERT expression in mouse xenografted with human MIAPaCa2 cells at 15 mg/kg, iv administered twice per week for 28 days and measured on day 28 by Western blot analysis; assay type: functional, organism-based; settings: time 28.0 day
PANC-1 = test: Antiproliferative activity against human PANC1 cells assessed as growth inhibition after 96 hrs by SRB assay; assay type: functional
MIA PaCa-2 [25] = test: Antitumor activity against human MIAPaCa2 cells xenografted in mouse assessed as change in tumor volume at 15 mg/kg, iv administered twice per week for 28 days and measured at day 53 by Caliper method relative to control; assay type: functional; settings: time 28 day
Quadruplex DNA = test: Binding affinity to G4 quadruplex DNA in human PANC1 cells assessed as increase in number of BG4 foci at 400 nM after 24 hrs by immunofluorescence based confocal microscopic analysis; assay type: cell-based; settings: PANC-1
[26] = Volume of distribution at steady state in mouse xenografted with human MIAPaCa2 cells at 14 mg/kg, iv administered as single dose; assay type: ADME, organism-based; settings: in vivo, read-out: Vdss
MIA PaCa-2 [27] = test: Antiproliferative activity against human MIAPaCa2 cells assessed as growth inhibition after 96 hrs by MTS assay relative to SOP1812; assay type: functional

clearance [2]: 10.9 mL/min/kg
Vd [5]: 11.8 L/kg
Vd [6]: 5.2 L/kg
Cmax [8]: 4520 ng/mL
AUC [9]: 11100 ng·h/mL
AUC [11]: 30600 ng·h/mL
AUC(0-inf) [12]: 34400 ng·h/mL
AUC(0-inf) [13]: 14500 ng·h/mL
Vd [14]: 27.8 L/kg
Cmax [16]: 22100 ng/mL
half-life [17]: 16 h
half-life [21]: 33 h
GI50 (MIA PaCa-2 [22]): 9 nM
GI50 (BXPC-3): 15.5 nM
clearance [23]: 8.1 mL/min/kg
GI50 (PANC-1): 15.6 nM
Vd [26]: 2.2 L/kg
Structure (SMILES): O=C1c2ccc3c4c(c(NCCN5CCCC5)cc(c24)C(=O)N1CCCN1CCOCC1)C(=O)N(CCCN1CCOCC1)C3=O
inhibition (Mus musculus [1]): Active
Activity (MIA PaCa-2 [3]): -60.6%
inhibition (Mus musculus [4]): inactive
Activity (Mus musculus [7]): inactive
Activity (MIA PaCa-2 [10]): 0.16 cm3
Activity (MIA PaCa-2 [15]): -90.6%
GI50 (CAPAN-1): 26.5 nM
Activity (MIA PaCa-2 [18]): -73.3%
Activity (MIA PaCa-2 [19]): 0.63 cm3
Activity (MIA PaCa-2 [20]): -64.4%
Activity (Mus musculus [24]): inactive
Activity (MIA PaCa-2 [25]): -78.1%
Activity (Quadruplex DNA): Active

Structure (SMILES): O=C1c2cc(-c3ccccc3CN3CCCC3)c3c4c(cc(NCCN5CCCC5)c(c24)C(=O)N1CCCN1CCOCC1)C(=O)N(CCCN1CCOCC1)C3=O
growth inhibition (GI) (MIA PaCa-2 [27]): 2.7%

Structure (SMILES): O=C1c2cc(-c3ccc(CN4CCOCC4)cc3)c3c4c(cc(NCCN5CCCC5)c(c24)C(=O)N1CCCN1CCOCC1)C(=O)N(CCCN1CCOCC1)C3=O
growth inhibition (GI) (MIA PaCa-2 [27]): 19.2%

Structure (SMILES): O=C1c2cc(-c3cccc(CN4CCCC4)c3)c3c4c(cc(NCCN5CCCC5)c(c24)C(=O)N1CCCN1CCOCC1)C(=O)N(CCCN1CCOCC1)C3=O
growth inhibition (GI) (MIA PaCa-2 [27]): 19.7%

Structure (SMILES): O=C1c2cc(-c3ccc(CN4CCCCCC4)cc3)c3c4c(cc(NCCN5CCCC5)c(c24)C(=O)N1CCCN1CCOCC1)C(=O)N(CCCN1CCOCC1)C3=O
growth inhibition (GI) (MIA PaCa-2 [27]): 30.7%

Structure (SMILES): O=C1c2cc(-c3ccc(CNC4CCCC4)cc3)c3c4c(cc(NCCN5CCCC5)c(c24)C(=O)N1CCCN1CCOCC1)C(=O)N(CCCN1CCOCC1)C3=O
growth inhibition (GI) (MIA PaCa-2 [27]): 54.9%

Structure (SMILES): O=C1c2cc(-c3ccc(CN4CCCCC4)cc3)c3c4c(cc(NCCN5CCCC5)c(c24)C(=O)N1CCCN1CCOCC1)C(=O)N(CCCN1CCOCC1)C3=O
growth inhibition (GI) (MIA PaCa-2 [27]): 32%

Structure (SMILES): O=C(c1ccc(-c2cc3c4c(c(NCCN5CCCC5)cc5c4c2C(=O)N(CCCN2CCOCC2)C5=O)C(=O)N(CCCN2CCOCC2)C3=O)cc1)N1CCCC1
growth inhibition (GI) (MIA PaCa-2 [27]): 10.9%

Structure (SMILES): CCN(CC)Cc1ccc(-c2cc3c4c(c(NCCN5CCCC5)cc5c4c2C(=O)N(CCCN2CCOCC2)C5=O)C(=O)N(CCCN2CCOCC2)C3=O)cc1
growth inhibition (GI) (MIA PaCa-2 [27]): 31.1%

Structure (SMILES): O=C1c2cc(-c3ccc(N4CCCC4)cc3)c3c4c(cc(NCCN5CCCC5)c(c24)C(=O)N1CCCN1CCOCC1)C(=O)N(CCCN1CCOCC1)C3=O
growth inhibition (GI) (MIA PaCa-2 [27]): 1.9%

Structure (SMILES): CN1CCN(Cc2ccc(-c3cc4c5c(c(NCCN6CCCC6)cc6c5c3C(=O)N(CCCN3CCOCC3)C6=O)C(=O)N(CCCN3CCOCC3)C4=O)cc2)CC1
growth inhibition (GI) (MIA PaCa-2 [27]): 20.2%

Structure (SMILES): Nc1ccn([C@@H]2O[C@H](CO)[C@@H](O)C2(F)F)c(=O)n1 [GEMCITABINE]
inhibition (Mus musculus [1]): inactive
Activity (MIA PaCa-2 [18]): -71.1%
Activity (Mus musculus [24]): inactive
Activity (MIA PaCa-2 [25]): -75.6%
